Test results reported in patent US20090325871A1, “Role of the Mk2 Pathway in Wound Repair” (priority 2006, published 2009).
“Also recorded” adds a separate entry of the source.

What was measured:
Assay type in all cases: cell-based, mouse
WT MEF [1] = assay: smα mRNA level by semiquantitative RT-PCR in WT MEF; conditions: TGFβ 1 ng/mL for 24 hours
Experimental: (§1) Semiquantitative RT-PCR to measure mRNA in mouse MEF was used. In brief, RNA was isolated from treated or untreated MEF using the RNeasy kit (Qiagen, Valencia, Calif.) according to manufacturesr's instructions. The amount of RNA was determined spectrophotometrically, and equal amounts were used to generate cDNA by reverse transcription using the Superscript III system (Invitrogen, Carlsbad, Calif.) according to manufacturer's instructions. Next an equal volume of the cDNA was added to a master mix containing the following primers. For sma, the primers 5′-GCATCCACGAAACCACCTA-3′ and 5′-[…]-3′ were used to generate a 418 bp PCR product from mouse smooth muscle α-actin cDNA. For β-actin, the primers 5′-[…]-3′ and 5′-[…]-3′) were used to generate 348 bp product from mouseβ-actin cDNA. The primers 5′-[…]-3′ and 5′-[…]3′ were used to generate a 142 bp product from mouse procollagen type I alpha 1 cDNA. The PCR reaction was carried out as using a Bio-Rad I-cycler thermal cycler (Hercules, Calif.). […] After staining with ethidium bromide, photographs of the gels were taken, scanned, and the intensity of the bands was measured using UnScanIt software (Orem, Utah). The relative amount of smα and procollagen RNA was determined by dividing the intensity of their corresponding PCR product band by the intensity of the β-actin PCR product band.

WT MEF [2] = assay: smα-actin protein level by Western blot in WT MEF; conditions: TGFβ 1 ng/mL for 24 hours
Experimental: (§2) Aliquots from the cell lysates prepared as described above were assayed for protein using the Bradford protein assay and then diluted with 2× Laemmli loading buffer for SDS-PAGE. Equal amounts of protein were then loaded in each well of 4-20% Tris/glycine gels. After electrophoresis for 90 min at 125 V constant voltage, the gel was blotted onto an Immobilon-P membrane by electrophoretic transfer at 25 V constant voltage overnight. The membrane was then washed, blocked with 5% milk, and probed with antibodies against MK2 (Cell Signaling, Beverly, Mass.) smα (Sigma, St. Louis, Mo.) or pan-actin (Santa Cruz, Santa Cruz, Calif.). The immunoreactive bands were visualized using a secondary antibody conjugated to horseradish peroxidase (Pierce, Rockford, Ill.).and a chemiluminescent substrate according to the manufacturer's instructions (SuperSignal, Pierce, Rockford, Ill.). The intensity of the bands was quantified using a UnScanIt software (Orem, Utah).
(§3) TGFβhas been implicated in the fibrotic response because of its ability to induce differentiation of fibroblasts into myofibroblasts. Whether TGFβ can induce myofibroblast differentiation in both WT MEF and MK2^−/− MEF was tested. Cells were growth arrested in serum free media for 24 hr then exposed to TGFβ (1 ng/mL).

SRE promoter [3] = assay: SRE-luciferase promoter-reporter assay in MK2−/− MEF; conditions: TGFβ 1 ng/mL
Experimental: (§4) For SRE promoter-reporter assays WT and MK2^−/− MEF, were transfected with the SRE.L-luciferase vector which contains two copies of SRE.L, a derivative of c-fos serum response element driving the expression of luciferase. The SRE.L vector was introduced alone in the case of WT MEF, and co-transfected with pMEpuro (a selection vector which confers resistance to puromycin to eukaryotic cells) in the case of MK2^−/− MEF. The vectors were introduced (5 μg of SRE.L, and 0.5 μg pMEpuro) into MEF using lipofectamine. Stable transfected WT MEF cell lines were obtained by selection with geneticin, and resistant colonies were isolated, expanded, and then screened for baseline luciferase activity. Since the MK2^−/− MEF were already resistant to geneticin, stable transfectants produced by co-transfection with pMEpuro were selected with puromycin, and resistant clones were isolated and expanded as above. The firefly luciferase activity was assayed using a kit from Promega (Madison, Wis.) according to the manufacturer's instructions. In brief, cells were lysed and the substrate (beetle luciferin) was added to the lysate. Next, chemiluminescence was measured using a luminometer.
Since MK2 has been reported to phosphorylate SRF, whether the effect of MK2 suppression on smα expression is due to its effect on the SRE promoter was tested. […]

SRE promoter [4] = assay: SRE-luciferase promoter-reporter assay in WT MEF; conditions: TGFβ 1 ng/mL
Experimental: as §4
Since smα induction by several agents including TGFβ has been reported to occur through activation of serum response elements (SRE) in the smα promoter, whether this activation occurs in WT MEF was tested.

WT MEF [5] = assay: procollagen type I α1 mRNA level by RT-PCR in WT MEF; conditions: TGFβ 1 ng/mL for 24 hours
Experimental: as §1

MK2−/− MEF [6] = assay: smα mRNA level by semiquantitative RT-PCR in MK2−/− MEF; conditions: TGFβ 1 ng/mL for 24 hours
Experimental: as §1

MK2−/− MEF [7] = assay: procollagen type I α1 mRNA level by RT-PCR in MK2−/− MEF; conditions: TGFβ 1 ng/mL for 24 hours
Experimental: as §1

MK2−/− MEF [8] = assay: smα-actin protein level by Western blot in MK2−/− MEF; conditions: TGFβ 1 ng/mL for 24 hours
Experimental: as §2, §3

[9] = greatest after 6 hours, baseline by 24 hours
[10] = SB-203580 1 μM, measured at 6 hours

Compound	smα mRNA level (WT MEF [1])	smα-actin protein level (WT MEF [2])	SRE-luciferase promoter activity (SRE promoter [3]; [9])	SRE-luciferase promoter activity (SRE promoter [4]; [9])	procollagen type I α1 mRNA level (WT MEF [5])	smα mRNA level (MK2−/− MEF [6])	procollagen type I α1 mRNA level (MK2−/− MEF [7])	smα-actin protein level (MK2−/− MEF [8])	block of TGFβ activation of SRE-luciferase promoter (SRE promoter [3]; [10])	block of TGFβ activation of SRE-luciferase promoter (SRE promoter [4]; [10])
TGFβ	increased; also recorded: appeared to increase	smα-actin level increased; also recorded: produce more sma	SRE promoter activity increased; also recorded: caused activation	SRE promoter activity increased; also recorded: caused activation	did not appear to alter	significantly reduced; also recorded: significantly decreased	did not appear to alter; also recorded: did not suppress	did not respond to TGFβ by increasing smα-actin; also recorded: produce even less smα		
C[S+]([O-])c1ccc(-c2nc(-c3ccncc3)c(-c3ccc(F)cc3)[nH]2)cc1 (stereo not shown) [SB-203580, reference compound]									completely blocked	partially blocked
